{"source": "BindingDB's records for doi:10.1021/acs.jmedchem.5b00109", "about": "(Peking Union Medical College, 2015)", "experiment": "Inhibition of HIV-1 HXB2 gp41 N-terminal heptad repeat-mediated fusion between infected HL2/3 cells to target TZM-bl cells after 6 hrs by luciferase reporter gene assay"}
{"substance": "H-MTWEAWDRAIAEYAARIEALIR-OH", "values": [{"measurement": "IC50", "result": 59, "unit": "nM"}]}
{"substance": "H-MTWEAWDRAIAEYAARIEALIRAAQEQQEKNEAALREL-OH", "values": [{"measurement": "IC50", "result": 0.86, "unit": "nM"}]}
{"substance": "H-MTWEEWDKKIEEYTKKIEELI-OH", "values": [{"measurement": "IC50", "result": 2.2, "unit": "nM"}]}
{"substance": "H-MTWEEWDKKIEEYTKKIEELIKKS-OH", "values": [{"measurement": "IC50", "result": 2.3, "unit": "nM"}]}
{"substance": "H-TTWEAWDRAIAEYAARIEALIR-OH", "values": [{"measurement": "IC50", "result": "> 2250", "unit": "nM"}]}
{"substance": "H-TTWEEWDKKIEEYTKKIEELIKKS-OH", "values": [{"measurement": "IC50", "result": 18, "unit": "nM"}]}
{"substance": "H-WEAWDRAIAEYAARIEALIRAAQEQQEKNEAALREL-OH", "values": [{"measurement": "IC50", "result": 0.34, "unit": "nM"}]}
